Series [1] has as its system Sarcoma 180 ascites tumor. The experiment in a line: Therapeutic effect against Sarcoma 180 tumor. Format: in vivo, male ddY-strain mice. As to conditions: ten days after implantation. As to the method:
Six male ddY-strain mice each having a weight of about 20 g were used for each group as test animals, and 5×10^6 cells of Sarcoma 180 ascites tumor were implanted subcutaneously into the animals at the axilla. 0.2 ml of phosphate buffered saline (hereinafter referred to as PBS) containing DC-92B or DC-92D at various concentrations was administered once intraperitoneally 24 hours after implantation. The composition of PBS was 0.8 g/dl NaCl, 0.02 g/dl KCl, […] Na2 HPO4 and 0.02 g/dl KH2 PO4 (pH 7.2).
(§1) For comparison, 0.2 ml of PBS containing mitomycin C was intraperitoneally administered to a group of animals 24 hours after tumor implantation.

The subject of series [2] is lymphocytic leukemia P388 tumor. The experiment in a line: Therapeutic effect against lymphocytic leukemia P388 tumor. Format: in vivo, male CDF1 mice. As to the method:
Five male CDF1 mice each having a weight of about 22 g were used for each group as test animals, and 1×10^6 cells of lymphocytic leukemia P388 tumor were implanted intraperitoneally into the test animals. 0.2 ml of PBS containing DC-92B or DC-92D was administered once intraperitoneally 24 hours after implantation.
as §1
*Continuous administration for five days

A further series is described as follows: Basicity. Format: physicochemical.
Series [3] concerns Shigella sonnei ATCC 9290. Put plainly: Minimum inhibitory concentration, agar dilution method. Format: cell-based. Here is the method: (§2) (A) Minimum Inhibitory Concentration Against Various Bacteria (MIC: μg/ml)
(§3) The antibacterial activity was evaluated by the agar dilution method using a medium (pH 7) prepared by dissolving 3 g of Bacto-Tryptone (Difco Laboratories), 3 g of meat extract, 1 g of yeast extract, 1 g of glucose and 16 g of agar in 1 liter of water.

In series [4] the test system is Bacillus subtilis No. 10707. The series is described as above. Format: cell-based. Here is the method: as §2, §3
Series [5] deals with Salmonella typhosa ATCC 9992. The series is described as above. As to conditions: Salmonella enterica. Format: cell-based. As to the method: as §2, §3
In series [6] the test system is Klebsiella pneumoniae ATCC 10031. The series is described as above. Format: cell-based. Here is the method: as §2, §3
The next series relates to Escherichia coli ATCC 26. The description is as above. Format: cell-based. Here is the method:
as §2, §3

The subject of series [7] is Staphylococcus aureus ATCC 6538P. The series is described as above. Format: cell-based. As to conditions: ATCC6538P, pH 7, read-out: Minimum Inhibitory Concentration (MIC). Here is the method:
as §2, §3

A further series can be described thus: in vivo. As to conditions: mouse, ip, mice, intraperitoneal administration, read-out: acute toxicity value (LD50).
[8] abbreviates: 6.0 mg/kg, i.p. 24 h after implantation.
[9] abbreviates: 1.563 mg/kg, once i.p. 24 h after implantation.
The mark [10] stands for this setting: 3.125 mg/kg, once i.p. 24 h after implantation.
Setting [11] is: 6.25 mg/kg, once i.p. 24 h after implantation.
The mark [12] stands for this setting: methanol, ethanol, acetone, chloroform, ethyl acetate, toluene and dimethylsulfoxide.
[13] abbreviates: 0.39 mg/kg, once i.p. 24 h after implantation.
[14] abbreviates: 0.78 mg/kg, once i.p. 24 h after implantation.
Where [15] appears, read: 1.56 mg/kg, once i.p. 24 h after implantation.
Where [16] appears, read: 3.13 mg/kg, once i.p. 24 h after implantation.
[17] abbreviates: 0.31 mg/kg, once i.p. 24 h after implantation.
The mark [18] stands for this setting: 0.0125 mg/kg, continuous administration for five days.
Setting [19] is: 0.025 mg/kg, continuous administration for five days.
[20] abbreviates: 0.15 mg/kg, once i.p. 24 h after implantation.

In brackets after ≈: the same amount, converted by molar mass. Read-outs that look alike come from different tables or passages of the source.

Regarding `CO[C@@]12[C@H](COC(N)=O)C3=C(C(=O)C(C)=C(N)C3=O)N1C[C@@H]1N[C@@H]12` [Mitomycin C, reference compound], in [1] (setting [8]), the Average tumor volume is 743.8 mm^3 and the “T/C (average tumor volume)” value is recorded as 0.35. Further, in [2] (setting [8]), the “Increased Life Span (T/C)” value came out at 1.63 and the “Survival days (mean)” value is on record as 17.9 days.

`Cc1cc2c(c3oc(C4(C)OC4C4OC4(C)C)cc(=O)c13)C(=O)c1c(O)c(C3CC(C)(N(C)C)C(O)C(C)(O)O3)cc(C3=CC(N(C)C)C(O)C(C)O3)c1C2=O` (stereo not drawn) [DC-92D]: in the series “Basicity”, the Basicity result is “Weakly basic”. For the same compound, the Average tumor volume turned out to be 1444.8 mm^3 in [1] (setting [9]), 679.9 mm^3 in series [1] (setting [10]) and 764.9 mm^3 in series [1] (setting [11]). For the same compound, the “T/C (average tumor volume)” value in series [1] (setting [9]) was found to be 0.68; in [1] (setting [10]), 0.32; in series [1] (setting [11]), 0.36. The Solubility result in “Solubility” (setting [12]) is recorded as “Soluble”; in the series “Solubility” (water and hexane) it was “sparingly soluble”. Further, the MIC in [3] (ATCC9290, agar dilution, pH 7, read-out: Minimum Inhibitory Concentration (MIC)) amounted to 100 µg/mL (≈ 129 µM); in series [4] (NO.10707, agar dilution, pH 7, read-out: Minimum Inhibitory Concentration (MIC)), 3 µg/mL (≈ 3.87 µM); in series [5] (agar dilution, pH 7, read-out: Minimum Inhibitory Concentration (MIC)) it was 100 µg/mL (≈ 129 µM); in series [6] (ATCC10031, agar dilution, pH 7, read-out: Minimum Inhibitory Concentration (MIC)), 25 µg/mL (≈ 32.3 µM); with Escherichia coli ATCC 26 (ATCC26, agar dilution, pH 7, read-out: Minimum Inhibitory Concentration (MIC)), 100 µg/mL (≈ 129 µM); in [7] (agar dilution), 1.5 µg/mL (≈ 1.94 µM). The “Increased Life Span (T/C)” value is on record as 1.04 in series [2] (setting [13]); 1.58 in series [2] (0.75 mg/kg, continuous administration for five days); 1.17 in series [2] (setting [14]); 1.15 in [2] (setting [15]); 0.69 in [2] (setting [16]). Besides, the “Survival days (mean)” value was 11.4 days in series [2] (setting [13]); 17.4 days in series [2] (0.75 mg/kg, 120 h); 12.9 days in series [2] (setting [14]); 12.7 days in [2] (setting [15]); 7.6 days in [2] (setting [16]). The LD50 in “in vivo” was roughly 5.6 mg/kg.

Regarding `Cc1cc2c(c3oc(C4(C)OC4C4OC4(C)C)cc(=O)c13)C(=O)c1c(O)c(C3CC(C)(N(C)C)C(O)C(C)(O)O3)cc(C3CC(N(C)C)C(O)C(C)O3)c1C2=O` (stereo not drawn) [DC-92B], in “Basicity”, the Basicity entry is on record as “Weakly basic”. In series [1] (setting [17]), this compound showed an Average tumor volume of 828.6 mm^3. In addition, the “T/C (average tumor volume)” value in series [1] (setting [17]) was determined as 0.39. For the same compound, the Solubility entry was “Soluble” in “Solubility” (setting [12]); “sparingly soluble” in the series “Solubility” (water and hexane). Besides, the MIC in series [3] (ATCC9290, pH 7, read-out: Minimum Inhibitory Concentration (MIC)) came to 10 µg/mL (≈ 12.9 µM); in series [4] (NO.10707, pH 7, read-out: Minimum Inhibitory Concentration (MIC)), 0.15 µg/mL (≈ 0.193 µM); in series [5] (pH 7, read-out: Minimum Inhibitory Concentration (MIC)) it was 40 µg/mL (≈ 51.5 µM); in series [6] (ATCC10031, pH 7, read-out: Minimum Inhibitory Concentration (MIC)) it was 2.5 µg/mL (≈ 3.22 µM); in the series with Escherichia coli ATCC 26 (ATCC26, pH 7, read-out: Minimum Inhibitory Concentration (MIC)) it was 10 µg/mL (≈ 12.9 µM); in series [7], 0.04 µg/mL (≈ 0.0515 µM). Further, the “Increased Life Span (T/C)” value is reported as 1.41 in series [2] (setting [18]), 1.41 in series [2] (setting [19]) and 1.47 in series [2] (setting [20]). For the same compound, the “Survival days (mean)” value in series [2] (setting [18]) turned out to be 15.5 days; in [2] (setting [19]), 15.5 days; in [2] (setting [20]) it was 16.2 days. Also, the LD50 in the series “in vivo” was roughly 0.31 mg/kg.

The record behind these values is patent US4847387A, “Antibiotic compounds DC-92B and DC-92D” (Kyowa Hakko Kogyo Co., Ltd., priority 1986, dated 1989).
